Test results: patent US11980620B2, “Compounds and methods for treatment of Diamond Blackfan anemia” (THE CHILDREN'S MEDICAL CENTER CORPORATION, priority 2017, dated 2024)

Legend:
[1] = system: K562 erythroleukemia cells transduced with shRPS19; experiment: Autophagy induction (p62, LC3-I, LC3-II protein levels) in K562 cells transduced with shRPS19; assay type: cell-based, human
Method: (FIG. 13A) Induction of autophagy by SMER28 (40 μM) monitored by protein levels of p62, LC3-I, and LC3-II after 24 hours. Cells were also treated with 5-FU (100 nM) to induce autophagy, or inhibitor of transcription actinomycin D (ActD; 100 nM). (FIG. 13B) Induction of autophagy by SMER28 (40 μM) monitored by protein levels of p62, LC3-I, and LC3-II after 24 hours treatment with or without lysosomal blockade with bafilomycin A (200 nM for 4 hours). Untreated samples are shown at higher exposure, to capture dynamic changes in the LC3-II levels. Rapamycin (200 nM) is a positive control. LC3-II levels relative to GAPDH are quantitated on the right. (FIG. 13C) Erythroid differentiation of CD34-5F cells transduced with shRNAs for luciferase (LUC) or ATG5±SMER28. Representative flow plots and quantitation showing the number of erythroid cells induced by SMER28 (10 μM) normalized to DMSO. 2 control luciferase shRNAs and 2 ATG5 shRNAs are included (knockdown efficiency in hematopoietic cells of 58% and 50%, respectively), each with 2 independent lines; p=0.005, 3 independent experiments. (FIG. 13D) Atg5 deficiency causes anemia in zebrafish. Wild-type zebrafish embryos were treated with 1.6 ng atg5 or missense morpholino, and hemoglobin staining was visualized with benzidine staining at 40 hpf with SMER28 (1 μM). Representative images (left), and quantitation (right) with embryos grouped by high, medium, and low levels of benzidine staining.
SMER28 was identified as an mTOR-independent inducer of autophagy, by synergizing with rapamycin to promote clearance of protein aggregates in models of neurodegenerative disease (Sarkar et al., 2007; Tian et al., 2011). Autophagy is a pro-survival pathway induced by a variety of stresses, such as nutrient limitation or protein aggregation. Autophagy is required for clearance of mitochondria during terminal erythroid maturation (Mortensen and Simon, 2010), but has not been linked with earlier stages of erythropoiesis. To determine if SMER28 modulates autophagy in erythroid cells, we interrogated the levels of p62 and LC3 in K562 erythroleukemia cells transduced with shRPS19. SMER28 reduced p62 and increased the levels of […] LC3-II isoform associated with autophagosomes (FIG. 13A). […] To measure autophagic flux, we monitored LC3-II levels after blocking lysosomal fusion with bafilomycin A. SMER28 increased LC3-II levels following lysosomal blockade, similarly to the mTOR inhibitor rapamycin (FIG. 13B).
Drug treatments. SMER28 was purchased from Tocris and diluted in 10 mM aliquots in DMSO. The final concentration for CD34-5F and CB CD34^+erythroid treatments was 0.2-10 μM as indicated in the text. The final concentration for K562 cell treatments was 20-40 μM. […]

p21 = p21 levels in CD34+ cells of DBA patient derived erythroid cell population; assay type: cell-based, human; conditions: 1.5 μM; in vitro
Text: Accordingly, in another embodiment, an autophagy activator as disclosed herein can be administered to a subject according to the methods as disclosed herein in an effective dose to decrease the levels of p21 expression in CD34+ cells present in an erythroid cell population obtained from the subject by at least about 1%, at least about 2%, at least about 3%, at least about 5%, at least about 10%, at least about 15%, least about 20%, at least about 30%, at least about 40%, at least about 50%, at least about 60%, at least about 70%, at least about 80%, at least about 90%, at least about 95%, at least about 98%, at least about 99%, or more than 99%, as compared to in the absence of an autophagy activator.

C=CCNc1ncnc2ccc(Br)cc12 [SMER28, 6-Bromo-N-2-propenyl-4-quinazolinam]
LC3-II levels following lysosomal blockade (autophagic flux) ([1]; SMER28 40 μM 24 hours, bafilomycin A 200 nM for 4 hours): increased
levels of LC3-II isoform associated with autophagosomes ([1]; SMER28 40 μM, 24 hours): increased
p62 protein level ([1]; SMER28 40 μM, 24 hours): reduced
levels of p21 in CD34+ cells (p21): decreased
